Key:
[1] = biological target: Diacylglycerol kinase alpha (Homo sapiens, UniProt P23743); experiment: DGK ADP-Glo Kinase Assay
Procedure: (§1) Luminescence was recorded using an Tecan SPARK microplate reader.

[2] = biological target: Diacylglycerol kinase zeta (Homo sapiens, UniProt Q13574); experiment: DGK ADP-Glo Kinase Assay
Procedure: as §1

Chain of Diacylglycerol kinase zeta (Q13574 as listed by the source): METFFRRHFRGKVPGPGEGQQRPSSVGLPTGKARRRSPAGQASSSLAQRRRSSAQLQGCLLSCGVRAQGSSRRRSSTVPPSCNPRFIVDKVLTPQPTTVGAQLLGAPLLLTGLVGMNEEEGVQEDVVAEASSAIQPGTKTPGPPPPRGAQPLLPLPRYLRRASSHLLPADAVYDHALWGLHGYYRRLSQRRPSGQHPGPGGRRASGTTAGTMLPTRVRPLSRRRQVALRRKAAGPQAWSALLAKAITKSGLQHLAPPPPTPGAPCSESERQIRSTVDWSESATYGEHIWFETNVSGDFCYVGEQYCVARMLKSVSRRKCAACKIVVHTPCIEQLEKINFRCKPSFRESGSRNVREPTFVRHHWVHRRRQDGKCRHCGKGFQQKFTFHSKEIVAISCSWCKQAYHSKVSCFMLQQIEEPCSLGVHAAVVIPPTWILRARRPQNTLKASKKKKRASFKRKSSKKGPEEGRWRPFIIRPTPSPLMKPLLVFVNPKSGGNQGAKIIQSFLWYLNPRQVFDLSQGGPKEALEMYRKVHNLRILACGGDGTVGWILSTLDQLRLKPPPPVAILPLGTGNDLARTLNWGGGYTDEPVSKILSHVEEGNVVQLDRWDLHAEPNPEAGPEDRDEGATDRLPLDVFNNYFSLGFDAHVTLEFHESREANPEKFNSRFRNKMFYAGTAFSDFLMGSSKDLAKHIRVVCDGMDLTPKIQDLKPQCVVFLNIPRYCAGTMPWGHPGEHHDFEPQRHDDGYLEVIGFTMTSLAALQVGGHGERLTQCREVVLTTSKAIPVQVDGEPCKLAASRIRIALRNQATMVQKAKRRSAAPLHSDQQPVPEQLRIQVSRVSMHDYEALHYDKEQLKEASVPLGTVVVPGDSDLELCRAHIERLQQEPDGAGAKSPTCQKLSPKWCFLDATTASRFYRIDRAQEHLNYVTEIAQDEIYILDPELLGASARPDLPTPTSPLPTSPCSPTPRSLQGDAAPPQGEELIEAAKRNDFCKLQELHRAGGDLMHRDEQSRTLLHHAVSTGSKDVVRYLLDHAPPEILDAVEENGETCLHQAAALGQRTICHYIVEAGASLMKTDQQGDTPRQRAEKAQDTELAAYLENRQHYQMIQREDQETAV
Chain of Diacylglycerol kinase alpha (P23743 whole entry): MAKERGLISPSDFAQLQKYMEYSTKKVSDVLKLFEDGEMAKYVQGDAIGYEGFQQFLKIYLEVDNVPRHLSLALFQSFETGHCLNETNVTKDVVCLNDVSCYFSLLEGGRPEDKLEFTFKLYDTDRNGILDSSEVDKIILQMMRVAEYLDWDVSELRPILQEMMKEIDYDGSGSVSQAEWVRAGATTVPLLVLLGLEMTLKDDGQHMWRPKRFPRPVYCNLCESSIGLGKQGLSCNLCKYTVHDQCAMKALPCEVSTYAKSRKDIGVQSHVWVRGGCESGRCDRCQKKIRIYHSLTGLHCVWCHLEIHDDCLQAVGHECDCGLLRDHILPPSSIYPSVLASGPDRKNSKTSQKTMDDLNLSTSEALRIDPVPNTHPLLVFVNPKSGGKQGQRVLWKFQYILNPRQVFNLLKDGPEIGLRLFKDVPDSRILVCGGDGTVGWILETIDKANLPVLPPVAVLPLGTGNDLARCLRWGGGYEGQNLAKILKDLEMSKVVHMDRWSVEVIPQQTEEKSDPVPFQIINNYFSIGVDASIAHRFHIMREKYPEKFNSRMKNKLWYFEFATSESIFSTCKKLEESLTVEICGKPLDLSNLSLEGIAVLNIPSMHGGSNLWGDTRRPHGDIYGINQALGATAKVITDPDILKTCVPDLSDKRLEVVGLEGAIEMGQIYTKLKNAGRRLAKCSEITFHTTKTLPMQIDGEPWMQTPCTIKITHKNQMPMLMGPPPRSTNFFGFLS

IC50 [1]: 76 nM
IC50 [2]: 12 nM
SMILES: CCC(c1cccc(S(F)(F)(F)(F)F)c1)N1C[C@H](CC)N(c2nc(=O)n(C)c3ccc(C#N)nc23)C[C@H]1CC (single isomer, unassigned) [US20250223301, Compound 55]

From BindingDB's records for patent US20250223301 (Inventisbio Co., 2025)
